These results are taken from patent US11739074B2, “Ras inhibitors” (Revolution Medicines, Inc., priority 2019, dated 2023).

What all share (format): cell-based
In test [1] the test system is AsPC-1 (K-Ras G12D). The test is described as follows: CellTiter-Glo cell viability assay, AsPC-1. Particulars: Homo sapiens, ASPC1, 120 h. A digest of the protocol: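 Test compounds were dispensed directly onto seeded cells, and on day 5 plates were brought to room temperature for about 30 minutes before CellTiter-Glo luminescence was read. Signals were expressed as percent of the mean DMSO control and fitted with a four-parameter logistic model.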
On the technique in general: Cellular ATP, detected with luciferase, serves as a proxy for viable cell number.

Test [2] deals with AsPC-1 (K-Ras G12D). The test is described as follows: Potency assay: pERK in AsPC-1 cells. Particulars: Homo sapiens.
Test [3] relates to NCI-H358 (K-Ras G12C). The test is described as follows: CellTiter-Glo cell viability assay, H358. To be noted: Homo sapiens, NCI-H358, 120 h. How it is done:
Determination of Cell Viability in RAS Mutant Cancer Cell Lines
Protocol: CellTiter-Glo® Cell Viability Assay
Note—The following protocol describes a procedure for monitoring cell viability of K-Ras mutant cancer cell lines in response to a compound of the invention. Other RAS isoforms may be employed, though the number of cells to be seeded will vary based on cell line used.
Test compounds (132.5 nL) were directly dispensed into the assay plates containing cells. […] On day 5, assay plates and their contents were equilibrated to room temperature for approximately 30 minutes. […] Luminescence was measured using the PerkinElmer Enspire. Data were normalized by the following: (Sample signal/Avg. DMSO)*100. The data were fit using a four-parameter logistic fit.

[4] abbreviates: read-out: AsPC-1 Cell Viability IC50, AsPC-1, K-Ras G12D, 5-day treatment.
The mark [5] stands for this setting: ASPC1, read-out: pERK EC50 (AsPC-1 KRAS G12D).
[6] abbreviates: read-out: H358 Cell Viability IC50, NCI-H358, K-Ras G12C, 5-day treatment.
[7] abbreviates: AsPC-1, K-Ras G12D, 5-day treatment, read-out: AsPC-1 Cell Viability IC50.
The mark [8] stands for this setting: ASPC1, AsPC-1 cells, K-Ras G12D, read-out: pERK EC50 (AsPC-1 KRAS G12D).
The mark [9] stands for this setting: NCI-H358, K-Ras G12C, 5-day treatment, read-out: H358 Cell Viability IC50.

Read-outs that look alike come from different tables or passages of the source.

Broadly, the IC50 is the concentration needed to halve the response being measured. One may read the EC50 as the concentration that produces a half-maximal response. `CCn1c(-c2cccnc2[C@H](C)OC)c2c3cc(ccc31)-c1cc(O)cc(c1)C[C@H](NC(=O)[C@H](C(C)C)N(C)C(=O)CN(C)C(=O)[C@@H]1N[C@@H]1C1CCC1)C(=O)N1CCC[C@H](N1)C(=O)OCC(C)(C)C2` [Compound 287]: the IC50 in test [1] (setting [4]) lay within 100 to 1000 nM; in test [3] (setting [6]) it was 10 to 100 nM. For the same compound, the EC50 in test [2] (setting [5]) was less than 5000 nM.
`CCn1c(-c2cccnc2[C@H](C)OC)c2c3cc(ccc31)-c1csc(n1)C[C@H](NC(=O)[C@H](C(C)C)N(C)C(=O)N(C)[C@H]1CCN(C(=O)[C@H]3CN3)C1)C(=O)N1CCC[C@H](N1)C(=O)OCC(C)(C)C2` [Compound 296]: the IC50 in test [1] (setting [7]) was 1000 to 10000 nM; in test [3] (setting [9]), 10 to 100 nM. Moreover, the half-maximal effective concentration (EC50) in test [2] (setting [8]) is less than 5000 nM.
With `CCn1c(-c2cnccc2COC)c2c3cc(ccc31)-c1cc(O)cc(c1)C[C@H](NC(=O)[C@H](C(C)C)N(C)C(=O)CN(C)C(=O)[C@H]1[C@@H](C(=O)OC)N1[S@+]([O-])C(C)(C)C)C(=O)N1CCC[C@H](N1)C(=O)OCC(C)(C)C2` (stereo partly drawn) [Example 48, methyl (2S,3R)-1-((R)-tert-butylsulfinyl)-3-((2-(((2S)-1-(((6^3S,4S)-1^1-ethyl-2^5-hydroxy-1^2-(4-(methoxymethyl)pyridin-3-yl)-10,10-dimethyl-5,7-dioxo-6^1,6^2,6^3,6^4,6^5,6^6-hexahydro-1^1H-8-oxa-1(5,3)-indola-6(1,3)-pyridazina-2(1,3)-benzenacycloundecaphane-4-yl)amino)-3-methyl-1-oxobutan-2-yl)(methyl)amino)-2-oxoethyl)(methyl)carbamoyl)aziridine-2-carboxylate], the IC50 in test [1] (read-out: AsPC-1 Cell Viability IC50) lay within 1000 to 10000 nM; in test [3] (read-out: H358 Cell Viability IC50) it was 100 to 1000 nM. In addition, the EC50 in test [2] (setting [5]) was less than 5000 nM.
With `CCn1c(-c2cccnc2[C@H](C)OC)c2c3cc(ccc31)-c1csc(n1)C[C@H](NC(=O)[C@H](C(C)C)N(C)C(=O)N1CC[C@H](N(C)C(=O)[C@H]3CN3)C1)C(=O)N1CCC[C@H](N1)C(=O)OCC(C)(C)C2` [Compound 228], the IC50 lay in the range of 100 to 1000 nM in test [1] (setting [7]) and 10 to 100 nM in test [3] (setting [9]). In addition, the EC50 in test [2] (setting [8]) was less than 5000 nM.
In the case of `CCn1c(-c2cccnc2[C@H](C)OC)c2c3cc(ccc31)-c1cc(O)cc(c1)C[C@H](NC(=O)[C@H](C1CCCC1)N1CC[C@]3(CCN(C(=O)[C@@H]4N[C@@H]4C4CC4)C3)C1=O)C(=O)N1CCC[C@H](N1)C(=O)OCC(C)(C)C2` [Example 214, (2S)-2-cyclopentyl-2-((S)-7-((2R,3R)-3-cyclopropylaziridine-2-carbonyl)-1-oxo-2,7-diazaspiro[4.4]nonan-2-yl)-N-((6^3S,4S)-1^1-ethyl-2^5-hydroxy-1^2-(2-((S)-1-methoxyethyl)pyridin-3-yl)-10,10-dimethyl-5,7-dioxo-6^1,6^2,6^3,6^4,6^5,6^6-hexahydro-1^1H-8-oxa-1(5,3)-indola-6(1,3)-pyridazina-2(1,3)-benzenacycloundecaphane-4-yl)acetamide], the IC50 in test [1] (setting [7]) and in test [3] (setting [9]) was 10 to 100 nM in each case. Moreover, in test [2] (setting [8]), the EC50 is less than 5000 nM.
Turning to `CCn1c(-c2cccnc2[C@H](C)OC)c2c3cc(ccc31)-c1cc(O)cc(c1)C[C@H](NC(=O)[C@H](C(C)C)N(C)C(=O)CN(C)C(=O)[C@H]1CN1CC1COC1)C(=O)N1CCC[C@H](N1)C(=O)OCC(C)(C)C2` (stereo partly drawn) [Compound 277], the IC50 is 100 to 1000 nM in test [1] (setting [4]) and 10 to 100 nM in test [3] (setting [6]). Also, in test [2] (setting [5]), the EC50 is less than 5000 nM.
On to `CCn1c(-c2cccnc2[C@H](C)OC)c2c3cc(ccc31)-c1cc(O)cc(c1)C[C@H](NC(=O)[C@H](C1CCCC1)N(C)C(=O)CN(C)C(=O)[C@H]1CN1)C(=O)N1CCC[C@H](N1)C(=O)OCC(C)(C)C2` [Example 95, (2R)—N-(2-(((1S)-1-cyclopentyl-2-(((6^3S,4S)-1^1-ethyl-2^5-hydroxy-1^2-(2-((S)-1-methoxyethyl)pyridin-3-yl)-10,10-dimethyl-5,7-dioxo-6^1,6^2,6^3,6^4,6^5,6^6-hexahydro-1^1H-8-oxa-1(5,3)-indola-6(1,3)-pyridazina-2(1,3)-benzenacycloundecaphane-4-yl)amino)-2-oxoethyl)(methyl)amino)-2-oxoethyl)-N-methylaziridine-2-carboxamide], for which the IC50 is 10 to 100 nM in test [1] (setting [4]) and less than 10 nM in test [3] (setting [6]). The EC50 in test [2] (setting [5]) is less than 5000 nM.
On to `CCn1c(-c2cccnc2[C@H](C)OC)c2c3cc(ccc31)-c1csc(n1)C[C@H](NC(=O)[C@H](C(C)C)N(C)C(=O)N1CCN(C(=O)[C@@H]3CN3)C[C@H]1C)C(=O)N1CCC[C@H](N1)C(=O)OCC(C)(C)C2` [Compound 302], for which the IC50 in test [1] (setting [7]) fell in the range of 100 to 1000 nM; in test [3] (setting [9]), 10 to 100 nM. The EC50 in test [2] (setting [8]) is less than 5000 nM.
Take `CCn1c(-c2cccnc2[C@H](C)OC)c2c3cc(ccc31)-c1cc(O)cc(c1)C[C@H](NC(=O)[C@H](C(C)C)N(C)C(=O)CN(C)C(=O)[C@@H]1CN1C1COC1)C(=O)N1CCC[C@H](N1)C(=O)OCC(C)(C)C2` (stereo partly drawn) [Compound 276]: the values for the IC50 in test [1] (setting [4]) and in test [3] (setting [6]) were 1000 to 10000 nM and 10 to 100 nM, respectively. The EC50 in test [2] (setting [5]) is less than 5000 nM.
For the compound `CCn1c(-c2cccnc2[C@H](C)OC)c2c3cc(ccc31)-c1csc(n1)C[C@H](NC(=O)[C@H](C(C)C)N(C)C(=O)N1CCN(C(=O)[C@H]3CN3)CC1)C(=O)N1CCC[C@H](N1)C(=O)OCC(C)(C)C2` [Compound 169], the IC50 in test [1] (setting [7]) was 100 to 1000 nM; in test [3] (setting [9]), 10 to 100 nM. Also, in test [2] (setting [8]), the EC50 was less than 5000 nM.
Turning to `CCn1c(-c2cccnc2[C@H](C)OC)c2c3cc(ccc31)-c1cc(O)cc(c1)C[C@H](NC(=O)[C@H](C(C)C)N(C)C(=O)CN(C)C(=O)[C@@H]1N[C@@H]1C(F)(F)F)C(=O)N1CCC[C@H](N1)C(=O)OCC(C)(C)C2` [Compound 258], the IC50 lay within 100 to 1000 nM in test [1] (setting [4]) and 10 to 100 nM in test [3] (setting [6]). Besides, the EC50 in test [2] (setting [5]) was less than 5000 nM.
With `CCn1c(-c2cccnc2[C@H](C)OC)c2c3cc(ccc31)-c1cc(O)cc(c1)C[C@H](NC(=O)[C@H](C(C)C)N(C)C(=O)CN(C)C(=O)[C@H]1N[C@@H]1C1CC1)C(=O)N1CCC[C@H](N1)C(=O)OCC(C)(C)C2` [Compound 136], the EC50 in test [2] (setting [5]) was less than 5000 nM. Also, in test [3] (setting [6]), the IC50 was less than 10 nM.
Regarding `CCn1c(-c2cccnc2[C@H](C)OC)c2c3cc(ccc31)-c1cc(O)cc(c1)C[C@H](NC(=O)[C@H](C(C)C)N(C)C(=O)[C@@]1(C)CCCN1C(=O)[C@@H]1CN1)C(=O)N1CCC[C@H](N1)C(=O)OCC(C)(C)C2` [Compound 241], the IC50 in test [1] (setting [7]) was 100 to 1000 nM; in test [3] (setting [9]) it was less than 10 nM.
`CCn1c(-c2cnccc2COC)c2c3cc(ccc31)-c1cccc(c1)C[C@H](NC(=O)[C@H](C(C)C)N(C)C(=O)CCN=C=Nc1ccc(N3CCOCC3)cc1)C(=O)N1CCC[C@H](N1)C(=O)OCC(C)(C)C2` [Compound 67]: the IC50 in test [1] (setting [7]) and in test [3] (setting [9]) was greater than 10000 nM throughout.
On to `CCn1c(-c2cnccc2COC)c2c3cc(ccc31)-c1cc(O)cc(c1)C[C@H](NC(=O)[C@H](C(C)C)N(C)C(=O)N1CCCN(C(=O)[C@H]3CN3)CC1)C(=O)N1CCC[C@H](N1)C(=O)OCC(C)(C)C2` [Compound 44], for which the IC50 is 1000 to 10000 nM in test [1] (setting [7]) and less than 10 nM in test [3] (setting [9]).
As for `CCn1c(-c2cnccc2COC)c2c3cc(ccc31)-c1cccc(c1)C[C@H](NC(=O)[C@H](C(C)C)N(C)C(=O)CCN=C=NCCOC)C(=O)N1CCC[C@H](N1)C(=O)OCC(C)(C)C2` [23 A and B], the IC50 in test [1] (setting [7]) and in test [3] (setting [9]) was 1000 to 10000 nM throughout.
`CCn1c(-c2cnccc2COC)c2c3cc(ccc31)-c1cc(O)cc(c1)C[C@H](NC(=O)[C@H](C(C)C)N(C)C(=O)[C@H]1CCN(C(=O)[C@@H]3CO3)C1)C(=O)N1CCC[C@H](N1)C(=O)OCC(C)(C)C2` [Example 31, (3S)—N-((2S)-1-(((6^3S,4S)-1^1-ethyl-2^5-hydroxy-1^2-(4-(methoxymethyl)pyridin-3-yl)-10,10-dimethyl-5,7-dioxo-6^1,6^2,6^3,6^4,6^5,6^6-hexahydro-1^1H-8-oxa-1(5,3)-indola-6(1,3)-pyridazina-2(1,3)-benzenacycloundecaphane-4-yl)amino)-3-methyl-1-oxobutan-2-yl)-N-methyl-1-((S)-oxirane-2-carbonyl)pyrrolidine-3-carboxamide]: the half-maximal inhibitory concentration (IC50) in test [1] (setting [7]) is greater than 10000 nM; in test [3] (setting [9]) it was 1000 to 10000 nM.
`CCn1c(-c2cccnc2[C@H](C)OC)c2c3cc(ccc31)-c1cc(O)cc(c1)C[C@H](NC(=O)[C@H](C(C)C)N(C)C(=O)CN(C)C(=O)[C@H]1CN1CCOC)C(=O)N1CCC[C@H](N1)C(=O)OCC(C)(C)C2` (stereo partly drawn) [Compound 159]: the IC50 in test [1] (setting [4]) was 100 to 1000 nM; in test [3] (setting [6]), less than 10 nM.
As to `CCn1c(-c2cnccc2COC)c2c3cc(ccc31)-c1cccc(c1)C[C@H](NC(=O)[C@H](C(C)C)N(C)C(=O)CCN=C=NCCc1cccs1)C(=O)N1CCC[C@H](N1)C(=O)OCC(C)(C)C2` [68 A and B], the IC50 in test [1] (setting [7]) and in test [3] (setting [9]) was 1000 to 10000 nM throughout.
On to `CCn1c(-c2cnccc2COC)c2c3cc(ccc31)-c1cccc(c1)C[C@H](NC(=O)[C@H](C(C)C)N(C)C(=O)CCN=C=Nc1ccccc1OC)C(=O)N1CCC[C@H](N1)C(=O)OCC(C)(C)C2` [20 A and B], for which the IC50 was greater than 10000 nM in test [1] (setting [7]) and 1000 to 10000 nM in test [3] (setting [9]).
